According to PubChem BioAssay (NCI):
“And” between values parts separate entries of the source, which are not always exact repeats. Equal entries are not always repeated.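 Interpolation was linear, between the two tested concentrations surrounding the appropriate level; five concentrations were tested over 48 hours in 96-well plates. GI50 = concentration required for 50% inhibition of growth. At the TGI there is no net growth.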

Tests used:
Experiment in all cases: growth of human tumour cells (NCI), 48 h
M14 melanoma = test system: M14 melanoma
OVCAR-8 ovarian = test system: OVCAR-8 ovarian
MOLT-4 leukemia = test system: MOLT-4 leukemia
NCI-H460 lung = test system: NCI-H460 lung
RPMI-8226 leukemia = test system: RPMI-8226 leukemia
HT29 colon = test system: HT29 colon
DU-145 prostate = test system: DU-145 prostate
HS 578T breast = test system: HS 578T breast
KM12 colon = test system: KM12 colon
CAKI-1 renal = test system: CAKI-1 renal

Structure (SMILES)	TGI (M14 melanoma)	TGI (OVCAR-8 ovarian)	TGI (MOLT-4 leukemia)	TGI (NCI-H460 lung)	TGI (RPMI-8226 leukemia)	TGI (HT29 colon)	TGI (DU-145 prostate)	TGI (HS 578T breast)	TGI (KM12 colon)	TGI (CAKI-1 renal)	GI50 (OVCAR-8 ovarian)	GI50 (MOLT-4 leukemia)	GI50 (KM12 colon)	GI50 (M14 melanoma) [µM]	GI50 (NCI-H460 lung) [µM]	GI50 (HT29 colon) [µM]	GI50 (DU-145 prostate) [µM]	GI50 (HS 578T breast) [µM]	GI50 (CAKI-1 renal) [µM]	GI50 (RPMI-8226 leukemia) [µM]
O=C(O)C(Cc1ccccc1)N1C(=O)c2ccccc2C1=O (centres undefined)	> 100 µM	> 100 µM	> 100 µM	> 100 µM	> 100 µM	> 100 µM	> 100 µM	> 100 µM	> 100 µM	> 100 µM										
N=C(N)C(N=Nc1ccccc1)C(=N)N (centres undefined)	> 100 µM	> 100 µM	99.3 µM	> 100 µM	> 100 µM	> 100 µM	> 100 µM	> 100 µM	> 100 µM	> 100 µM										
COc1nc(C#CCCCC#N)nc(OC)n1	47.8 µM	61.4 µM	> 100 µM	89.1 µM		> 100 µM	23.3 µM	> 100 µM	36.3 µM	27.2 µM										
O=C1CC(n2cccc2)c2cc(Br)sc21 (centres undefined)	> 100 µM	> 100 µM	87 µM	> 100 µM	69.9 µM	> 100 µM	> 100 µM	> 100 µM	> 100 µM	> 100 µM										
CC(=O)OCCC[C@@H]1C(=C(C)C)CCC2[C@@]1(C)CC[C@@]1(C)C[C@](C)(CCC=C(C)C)CC[C@]21C (some centres undefined)	> 100 µM	> 100 µM	> 100 µM	> 100 µM	> 100 µM	> 100 µM	> 100 µM	> 100 µM	> 100 µM	> 100 µM										
CC1=CC[C@@]2(C)[C@@H]([C@@H]1C)[C@H]1CC[C@@H]3[C@@]4(C)CC[C@H](O)C(C)(C)[C@@H]4CC[C@@]3(C)[C@]1(C)C[C@@H]2O	32.3 µM	28.7 µM	> 70.4 µM	> 67.7 µM	> 100 µM	46 µM	25.6 µM	> 74 µM	> 74.8 µM	> 83.2 µM										
C=CCOCCCC(=O)C(=[N+]=[N-])C(=O)OC	> 100 µM	> 100 µM	> 100 µM	> 100 µM	> 100 µM	> 100 µM	> 100 µM		> 100 µM	> 100 µM										
OC(c1ccc(-c2ccccc2)cc1)(c1ccc(-c2ccccc2)cc1)c1ccc(-c2ccccc2)cc1	> 100 µM	> 100 µM	> 100 µM	> 100 µM	> 100 µM	> 100 µM	> 100 µM	> 100 µM	> 100 µM	> 100 µM										
OC1C=C2C3CN(Cc4cc5c(cc43)OCO5)[C@H]2C[C@@H]1O (some centres undefined)	25 µM	91.2 µM	> 100 µM	13.2 µM	> 100 µM	46.3 µM	71.2 µM	> 100 µM	43.9 µM	29.7 µM										
O=C1CS(=O)(=O)C(c2cccc(Oc3ccccc3)c2)N1c1cccc(Cl)c1Cl (centres undefined)	> 100 µM	60.1 µM	58.9 µM	> 100 µM		71.2 µM	> 100 µM	90 µM	> 100 µM	> 100 µM										
O=C(NN1C(=O)/C(=C/c2ccc(Cl)cc2)N=C1c1ccccc1)c1c(Cl)c(Cl)c(Cl)c(Cl)c1-c1nc2ccccc2[nH]1	68.8 µM	> 100 µM	> 100 µM	16.2 µM		> 100 µM	61.9 µM	95.3 µM	28.5 µM	78.8 µM										
O=C1c2ccccc2-c2ccc(O)cc21	72.7 µM	42.2 µM	44.4 µM	76.3 µM	> 100 µM	> 100 µM	49.1 µM	> 100 µM	38.4 µM	37.8 µM										
O=C1CCC(NC(=O)Cc2ccc(O)cc2)C(=O)N1 (centres undefined)	> 2500 µM	> 2500 µM		> 2500 µM		> 2500 µM			> 2500 µM	> 2500 µM										
CN(C)CCNc1c([N+](=O)[O-])cc2c3c(cccc13)C(=O)N(CCN(C)C)C2=O		3.27 µM	3.09 µM	2.26 µM	11.6 µM	5.03 µM			> 26.4 µM	6.6 µM										
N#CCc1[nH]nc2nc(SCc3ccccc3)nc(N3CCCCC3)c12	34.8 µM	> 100 µM	37.9 µM	37.9 µM	43.2 µM	41.4 µM	33.6 µM	39.2 µM	33 µM	34.6 µM										
CCN(CC)/C(=C\Cl)Nc1ccccn1	> 100 µM	> 100 µM	> 100 µM	> 100 µM	> 100 µM	> 100 µM			> 100 µM	> 100 µM										
S=C(NCCCCCCNC(=S)Nc1c2ccccc2nc2ccccc12)Nc1c2ccccc2nc2ccccc12		> 100 µM	> 94.3 µM	> 100 µM	> 100 µM	> 100 µM			> 34.7 µM	> 100 µM										

Structure (SMILES)	TGI (M14 melanoma)	TGI (OVCAR-8 ovarian)	TGI (MOLT-4 leukemia)	TGI (NCI-H460 lung)	TGI (RPMI-8226 leukemia)	TGI (HT29 colon)	TGI (DU-145 prostate)	TGI (HS 578T breast)	TGI (KM12 colon)	TGI (CAKI-1 renal)	GI50 (OVCAR-8 ovarian)	GI50 (MOLT-4 leukemia)	GI50 (KM12 colon)	GI50 (M14 melanoma) [µM]	GI50 (NCI-H460 lung) [µM]	GI50 (HT29 colon) [µM]	GI50 (DU-145 prostate) [µM]	GI50 (HS 578T breast) [µM]	GI50 (CAKI-1 renal) [µM]	GI50 (RPMI-8226 leukemia) [µM]
Cc1cc(C)n(C(=O)C(C)Sc2nnc(SC(C)C(=O)n3nc(C)cc3C)s2)n1 (centres undefined)	> 100 µM	> 100 µM	> 100 µM	> 100 µM	> 100 µM	> 100 µM	> 100 µM	> 100 µM	> 100 µM	> 100 µM										
C[N+]1(C)C2CCC1CC(OC(=O)C(CO)c1ccccc1)C2 (centres undefined)	> 100 µM	> 100 µM	> 100 µM		> 100 µM	> 100 µM	> 100 µM	> 100 µM	> 100 µM	> 100 µM										
Cc1nc(Cl)c(C)c(Cl)n1	> 100 µM	> 100 µM	> 100 µM	> 100 µM	> 100 µM	> 100 µM	> 100 µM	> 100 µM	> 100 µM	0.0695 µM										
Cc1c(N)nc([C@H](CC(N)=O)NC[C@H](N)C(N)=O)nc1C(=O)N[C@H](C(=O)N[C@H](C)[C@@H](O)[C@H](C)C(=O)N[C@H](C(=O)NCCc1nc(-c2nc(C(=O)NCCC[S+](C)C)cs2)cs1)[C@@H](C)O)C(OC1OC(CO)C(O)C(O)C1OC1OC(CO)C(O)C(OC(N)=O)C1O)c1cnc[nH]1 (some centres undefined)		22.8 µM and 11.2 µM and 15.2 µM	13.1 µM and 2.22 µM and 4.41 µM	13.1 µM and 7.63 µM and 31.6 µM		25 µM and 29 µM and > 100 µM	20.2 µM and 5.4 µM and 30 µM		24.5 µM and 23 µM and > 100 µM		1.49 µM and 1.59 µM	0.204 µM and 0.613 µM	4.49 µM							
Cc1c2c(cc3c1[nH]c1ccccc13)C(c1ccc(F)cc1)=NCC2		6.68 µM	5.34 µM	2.45 µM	2.54 µM	4.2 µM			7.37 µM	4.79 µM										
CN1CCN(CCCOc2ccc3ncnc(Nc4ccc(Oc5cccc(C(F)(F)F)c5)c(Cl)c4)c3c2)CC1	3.87 µM	10.7 µM	4.8 µM	3.37 µM		3.63 µM	3.49 µM	4.22 µM	4.01 µM	3.07 µM	2.78 µM	1.83 µM	1.86 µM	1.87	1.73	1.13	1.66	1.67	1.31	
CC(=O)C1(c2ccccc2)CCCN(C)CC1 (centres undefined)	> 100 µM	> 100 µM	> 100 µM	> 100 µM	> 100 µM	> 100 µM	> 100 µM	> 100 µM	> 100 µM	> 100 µM										
CCn1cc(C(=O)O)c(=O)c2cc(F)c(N3CCN(Cn4c(O)c(N=NC(=O)c5ccncc5)c5cc(Cl)ccc54)CC3)cc21	> 100 µM	> 100 µM	36 µM	> 100 µM		> 100 µM	> 100 µM	> 100 µM	> 100 µM	72.8 µM										
COc1ccc(/C=c2/[nH]c(=O)/c(=C\c3ccc(OCc4ccccc4)cn3)[nH]c2=O)cc1	> 100 µM	> 100 µM	> 100 µM	> 100 µM		> 100 µM	> 100 µM	> 100 µM	> 100 µM	> 100 µM										
O=C1c2scnc2-c2nccc3c2c1nc1ccccc13		1.21 µM	> 100 µM	1.58 µM	> 100 µM	> 19.9 µM	3.14 µM	> 100 µM		3.83 µM										
Cc1c(Cl)c(=O)oc2cc(OCC(=O)c3ccccc3)ccc12	> 100 µM	> 100 µM	> 100 µM	> 100 µM		> 100 µM	> 100 µM	> 100 µM	> 100 µM	> 100 µM										
COC1(OC)C[C@H](C)[C@@]23O[C@]24c2cc(O)c5c(c2N[C@H]3C#C/C=C\C#C[C@]14O)C(=O)c1ccccc1C5=O	0.0176 µM and 0.0111 µM	0.048 µM and 0.0756 µM	< 0.001 µM		0.0604 µM and 0.0392 µM		0.00686 µM and 0.048 µM	0.516 µM and 3.6 µM	0.0847 µM and 0.108 µM	0.00561 µM and 0.00653 µM	0.0043 µM	< 0.001 µM	0.0138 µM and 0.0249 µM	0.00194	0.005	0.0226	0.00164	0.0847	< 0.001	0.0015
O=c1c2c([nH]c3nccn13)CCCC2	> 10 µM	> 10 µM	> 10 µM	> 10 µM	> 10 µM	> 10 µM	> 10 µM	> 10 µM	> 10 µM	> 10 µM										
O=C1OC(c2ccccc2)=N/C1=C/c1cccs1	> 100 µM	> 100 µM	41.9 µM	> 100 µM	44.9 µM	> 100 µM		> 100 µM	> 100 µM											
O=C1CC(N2C(=O)/C(=C/C(Cl)=C\c3ccc([N+](=O)[O-])cc3)SC2=S)C(=O)N1c1ccc(Cl)cc1 (centres undefined)	5.06 µM	> 100 µM	13.4 µM	> 100 µM	0.979 µM	4.6 µM		> 100 µM		3.28 µM	0.832 µM	0.596 µM		2.11	3.3	0.632		1.8	1.13	0.303
CCCCC1Cc2cc(OC)ccc2-c2nc3cc(OC)ccc3n21 (centres undefined) (tested in a mixture with another compound)	28.2 µM	31.6 µM	37 µM	28.7 µM	24.4 µM	22.5 µM	30 µM	25.3 µM	43.4 µM	38.8 µM										
